Assay results: the NIST ThermoML archive (doi:10.1021/je301167q)

Assays:
[1] = 101 kPa, Liquid; for speed of sound: Sing-around technique in a fixed-path interferometer
[2] = xn = mol fraction of the nth substance listed; details: 101 kPa, Liquid; for speed of sound: Sing-around technique in a fixed-path interferometer

CCCCN [1-butanamine]
[1]
Details | mass density [kg/m3] | speed of sound [m/s]
298.15 K | 733.33 | 1246.5
308.15 K | 723.67 | 1201.3
318.15 K | 714 | 1156.2

CCCCN [1-butanamine] + CCCCCCCC[n+]1ccn(C)c1.F[B-](F)(F)F
[2]
Details | mass density, 298.15 K [kg/m3] | mass density, 308.15 K [kg/m3] | mass density, 318.15 K [kg/m3] | speed of sound, 298.15 K [m/s] | speed of sound, 308.15 K [m/s] | speed of sound, 318.15 K [m/s]
x2 = 0 | 733.33 | 723.67 | 714 | 1246.5 | 1201.3 | 1156.2
x2 = 0.0963 | 817.1 | 807.93 | 800.03 | 1276.5 | 1235 | 1193.1
x2 = 0.1917 | 880.04 | 871.4 | 863.91 | 1309 | 1270.6 | 1232
x2 = 0.2948 | 932.2 | 924.07 | 916.37 | 1344.1 | 1309 | 1274
x2 = 0.3866 | 968.66 | 960.74 | 953.13 | 1371.6 | 1338.8 | 1306.4
x2 = 0.49 | 1001.63 | 993.95 | 986.41 | 1398.9 | 1368.2 | 1337.9
x2 = 0.5895 | 1027.36 | 1019.96 | 1012.6 | 1421.3 | 1391.9 | 1363.3
x2 = 0.7124 | 1053.43 | 1046.28 | 1039.31 | 1442.7 | 1414.8 | 1387.4
x2 = 0.7925 | 1067.91 | 1060.88 | 1053.97 | 1454.2 | 1427.1 | 1400
x2 = 0.8843 | 1082.31 | 1075.48 | 1068.67 | 1465.8 | 1438.8 | 1412.3

CCCCN [1-butanamine] + CCCCCCn1cc[n+](C)c1.F[B-](F)(F)F
[2]
Details | mass density, 298.15 K [kg/m3] | mass density, 308.15 K [kg/m3] | mass density, 318.15 K [kg/m3] | speed of sound, 298.15 K [m/s] | speed of sound, 308.15 K [m/s] | speed of sound, 318.15 K [m/s]
x2 = 0 | 733.33 | 723.67 | 714 | 1246.5 | 1201.3 | 1156.2
x2 = 0.0994 | 820.09 | 810.83 | 803.47 | 1272.3 | 1231.1 | 1188.8
x2 = 0.2012 | 890.48 | 881.55 | 874.79 | 1305.8 | 1267.4 | 1229
x2 = 0.302 | 946.28 | 937.89 | 930.48 | 1341 | 1305.5 | 1270.1
x2 = 0.4065 | 993.19 | 985.04 | 977.3 | 1376.3 | 1343.8 | 1312
x2 = 0.4959 | 1026.43 | 1018.45 | 1010.64 | 1404.6 | 1374.3 | 1344.3
x2 = 0.5886 | 1055.62 | 1047.87 | 1040.15 | 1428.9 | 1401.1 | 1373.6
x2 = 0.7069 | 1086.83 | 1079.26 | 1071.7 | 1456.2 | 1429.9 | 1403.8
x2 = 0.8126 | 1110.28 | 1102.83 | 1095.43 | 1474.1 | 1450.2 | 1423.8
x2 = 0.8796 | 1123.46 | 1116.13 | 1108.89 | 1483.2 | 1459.8 | 1433.9

CCCCCCn1cc[n+](C)c1.F[B-](F)(F)F [1-hexyl-3-methylimidazolium tetrafluoroborate]
[1]
Details | mass density [kg/m3] | speed of sound [m/s]
298.15 K | 1145.11 | 1496.7
308.15 K | 1137.71 | 1472
318.15 K | 1130.49 | 1447.7

CCCCCCn1cc[n+](C)c1.F[B-](F)(F)F [1-hexyl-3-methylimidazolium tetrafluoroborate] + CCCCCCCCN
[2], x1 = 1
Details | mass density [kg/m3] | speed of sound [m/s]
298.15 K | 1145.11 | 1496.7
308.15 K | 1137.71 | 1472
318.15 K | 1130.49 | 1447.7
